Experimental findings from PubChem BioAssay AID1963837 (Molecular Pharmacology Branch, DTP, NCI, 2024) are described below.

The test system of the first assay is 843126-344-R-J1-PDC complex spheroid viability. Put plainly: Anticancer human tumor 843126-344-R-J1-PDC patient-derived melanoma cell line growth inhibition [POLQ]. The settings on record: curve of first compound; second compound 0.0316 µM. Put shortly: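 Patient-derived tumour cells were co-cultured with HUVEC and mesenchymal stem cells as multicellular spheroids at 37 °C. They were treated with POLQ inhibitors (novobiocin, ART-558, RP6685) alone or combined with other agents. Top concentrations were at or near clinical Cmax (otherwise 10 microM; SN-38 at 1 microM), decreasing in half-log steps.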
For the compound `CC1COCCN1c1cc(C2(O)CC3CCC(C2)O3)c2cnn(-c3ccn[nH]3)c2n1` (stereo unspecified) + COC1C(OC(N)=O)C(O)C(Oc2ccc3c(O)c(NC(=O)c4ccc(O)c(CC=C(C)C)c4)c(=O)oc3c2C)OC1(C)C, the IC50 was 0.387 µM.

As for `O=C(Nc1ccc(O)c(NS(=O)(=O)c2ccc(F)cc2)c1)c1ccc(-c2ccccc2)cc1` + COC1C(OC(N)=O)C(O)C(Oc2ccc3c(O)c(NC(=O)c4ccc(O)c(CC=C(C)C)c4)c(=O)oc3c2C)OC1(C)C, the IC50 was > 10 µM.

As for `COc1cc(C2c3cc4c(cc3C(OC3OC5COC(C)OC5C(O)C3O)C3COC(=O)C23)OCO4)cc(OC)c1O` (stereo unspecified) + Cc1cccc(N(C)C(=O)C2C(O)CCN2c2nc(C)cc(C(F)(F)F)c2C#N)c1, the half-inhibitory concentration (IC50) amounted to 8.76 µM.

For `COc1cccc2c1C(=O)c1c(O)c3c(c(O)c1C2=O)CC(O)(C(=O)CO)CC3OC1CC(N)C(O)C(C)O1` (stereo unspecified) + Cc1cccc(N(C)C(=O)C2C(O)CCN2c2nc(C)cc(C(F)(F)F)c2C#N)c1, the IC50 stood at 0.178 µM.

Staying with this assay, now noted: curve of first compound; second compound 0.1 µM.
For `CC1COCCN1c1cc(C2(O)CC3CCC(C2)O3)c2cnn(-c3ccn[nH]3)c2n1` (stereo unspecified) + COC1C(OC(N)=O)C(O)C(Oc2ccc3c(O)c(NC(=O)c4ccc(O)c(CC=C(C)C)c4)c(=O)oc3c2C)OC1(C)C, the half-maximal inhibitory concentration (IC50) is 0.485 µM.

As for `O=C(Nc1ccc(O)c(NS(=O)(=O)c2ccc(F)cc2)c1)c1ccc(-c2ccccc2)cc1` + COC1C(OC(N)=O)C(O)C(Oc2ccc3c(O)c(NC(=O)c4ccc(O)c(CC=C(C)C)c4)c(=O)oc3c2C)OC1(C)C, the IC50 is > 10 µM.

For `COc1cc(C2c3cc4c(cc3C(OC3OC5COC(C)OC5C(O)C3O)C3COC(=O)C23)OCO4)cc(OC)c1O` (stereo unspecified) + Cc1cccc(N(C)C(=O)C2C(O)CCN2c2nc(C)cc(C(F)(F)F)c2C#N)c1, the IC50 stood at 8.26 µM.

As for `COc1cccc2c1C(=O)c1c(O)c3c(c(O)c1C2=O)CC(O)(C(=O)CO)CC3OC1CC(N)C(O)C(C)O1` (stereo unspecified) + Cc1cccc(N(C)C(=O)C2C(O)CCN2c2nc(C)cc(C(F)(F)F)c2C#N)c1, the concentration for half-maximal inhibition (IC50) was determined as 0.245 µM.

Staying with this assay, now noted: curve of first compound; second compound 0.316 µM.
`CC1COCCN1c1cc(C2(O)CC3CCC(C2)O3)c2cnn(-c3ccn[nH]3)c2n1` (stereo unspecified) + COC1C(OC(N)=O)C(O)C(Oc2ccc3c(O)c(NC(=O)c4ccc(O)c(CC=C(C)C)c4)c(=O)oc3c2C)OC1(C)C: the IC50 was 0.405 µM.

Take `O=C(Nc1ccc(O)c(NS(=O)(=O)c2ccc(F)cc2)c1)c1ccc(-c2ccccc2)cc1` + COC1C(OC(N)=O)C(O)C(Oc2ccc3c(O)c(NC(=O)c4ccc(O)c(CC=C(C)C)c4)c(=O)oc3c2C)OC1(C)C: the IC50 was > 10 µM.

`COc1cc(C2c3cc4c(cc3C(OC3OC5COC(C)OC5C(O)C3O)C3COC(=O)C23)OCO4)cc(OC)c1O` (stereo unspecified) + Cc1cccc(N(C)C(=O)C2C(O)CCN2c2nc(C)cc(C(F)(F)F)c2C#N)c1: the IC50 is 6.01 µM.

Turning to `COc1cccc2c1C(=O)c1c(O)c3c(c(O)c1C2=O)CC(O)(C(=O)CO)CC3OC1CC(N)C(O)C(C)O1` (stereo unspecified) + Cc1cccc(N(C)C(=O)C2C(O)CCN2c2nc(C)cc(C(F)(F)F)c2C#N)c1, the IC50 came out at 0.168 µM.

The assay is the same for the next values; noted with them: curve of first compound; second compound 1 µM.
Turning to `CC1COCCN1c1cc(C2(O)CC3CCC(C2)O3)c2cnn(-c3ccn[nH]3)c2n1` (stereo unspecified) + COC1C(OC(N)=O)C(O)C(Oc2ccc3c(O)c(NC(=O)c4ccc(O)c(CC=C(C)C)c4)c(=O)oc3c2C)OC1(C)C, the IC50 came to 0.391 µM.

On to `O=C(Nc1ccc(O)c(NS(=O)(=O)c2ccc(F)cc2)c1)c1ccc(-c2ccccc2)cc1` + COC1C(OC(N)=O)C(O)C(Oc2ccc3c(O)c(NC(=O)c4ccc(O)c(CC=C(C)C)c4)c(=O)oc3c2C)OC1(C)C, for which the IC50 was > 10 µM.

In the case of `COc1cc(C2c3cc4c(cc3C(OC3OC5COC(C)OC5C(O)C3O)C3COC(=O)C23)OCO4)cc(OC)c1O` (stereo unspecified) + Cc1cccc(N(C)C(=O)C2C(O)CCN2c2nc(C)cc(C(F)(F)F)c2C#N)c1, the IC50 was > 10 µM.

For `COc1cccc2c1C(=O)c1c(O)c3c(c(O)c1C2=O)CC(O)(C(=O)CO)CC3OC1CC(N)C(O)C(C)O1` (stereo unspecified) + Cc1cccc(N(C)C(=O)C2C(O)CCN2c2nc(C)cc(C(F)(F)F)c2C#N)c1, the IC50 was determined as 0.204 µM.

The same assay, now with this note: curve of first compound; second compound 3.16 µM.
On to `CC1COCCN1c1cc(C2(O)CC3CCC(C2)O3)c2cnn(-c3ccn[nH]3)c2n1` (stereo unspecified) + COC1C(OC(N)=O)C(O)C(Oc2ccc3c(O)c(NC(=O)c4ccc(O)c(CC=C(C)C)c4)c(=O)oc3c2C)OC1(C)C, for which the IC50 was 0.399 µM.

`O=C(Nc1ccc(O)c(NS(=O)(=O)c2ccc(F)cc2)c1)c1ccc(-c2ccccc2)cc1` + COC1C(OC(N)=O)C(O)C(Oc2ccc3c(O)c(NC(=O)c4ccc(O)c(CC=C(C)C)c4)c(=O)oc3c2C)OC1(C)C: the IC50 is > 10 µM.

Consider `COc1cc(C2c3cc4c(cc3C(OC3OC5COC(C)OC5C(O)C3O)C3COC(=O)C23)OCO4)cc(OC)c1O` (stereo unspecified) + Cc1cccc(N(C)C(=O)C2C(O)CCN2c2nc(C)cc(C(F)(F)F)c2C#N)c1, for which the IC50 was determined as 5.47 µM.

Regarding `COc1cccc2c1C(=O)c1c(O)c3c(c(O)c1C2=O)CC(O)(C(=O)CO)CC3OC1CC(N)C(O)C(C)O1` (stereo unspecified) + Cc1cccc(N(C)C(=O)C2C(O)CCN2c2nc(C)cc(C(F)(F)F)c2C#N)c1, the IC50 came to 0.184 µM.

The assay is the same for the next values; noted with them: curve of first compound; second compound 10 µM.
Turning to `CC1COCCN1c1cc(C2(O)CC3CCC(C2)O3)c2cnn(-c3ccn[nH]3)c2n1` (stereo unspecified) + COC1C(OC(N)=O)C(O)C(Oc2ccc3c(O)c(NC(=O)c4ccc(O)c(CC=C(C)C)c4)c(=O)oc3c2C)OC1(C)C, the IC50 is 0.493 µM.

Usually IC50 stands for the concentration at which inhibition is half-maximal.
